The subject of test [1] is MB-1 cells co-cultured with OP9 cells. The test can be described thus: Apoptosis detection with NucView 488 Caspase-3 Assay Kit in co-culture of MB-1 cells and OP9 cells. In kind it is cell-based, human. To be noted: for Apoptosis induction of MB-1 cells (%): NucView 488 positive cells. How it is done: To a 12-well plate, OP9 cells treated with MMC were seeded at a density of 1.6×10^5 cells per well. After culture was performed for one day, MB-1 cells were seeded at a density of 8.0×10^4 cells per well. After culture was performed for two days, Stelliferin A was added in a concentration of 0.4 μg/mL. After culture was performed for one day, imatinib was added in a concentration of 0.2 μM or 1.0 μM. After culture was performed for one day, apoptosis was detected in the manner described below.
Apoptosis was detected by use of NucView 488 Caspase-3 Assay Kit for Live Cells (Biotium, USA) or a fluorescent reagent JC-1 (Cayman Chemical, USA) which detects mitochondrial membrane potential difference.
In evaluation by NucView 488, 0.05% trypsin-EDTA was added to individual wells. After incubation for 4 minutes, the culture liquid was added. Aliquots were separately taken and then centrifuged (1,200 rpm, 4 minutes) to collect cells. Each of the suspensions of the cells collected was controlled so as to obtain a density of 1.0×10^6 cells per mL. Aliquots (200 μL) were separately taken from the suspensions. To the cells thus taken, 5 μL of NucView 488 substrate stock solution of NucView 488 Caspase-3 Assay Kit for Live Cells was added and incubated in the darkness at normal temperature for 20 minutes. Culture liquid (300 μL) was added and subjected to analysis by a cell sorter (Type SH-800, SONY Corporation, Tokyo). The ratio of green fluorescent positive cells per each well was calculated.

The subject of test [2] is MB-1 cells. Kind of test: Apoptosis inducing action by imatinib alone in culture system of MB-1 cells alone (NucView 488). To be noted: imatinib 0.2 μM or 1.0 μM, one day; compared to MB-1 cells co-cultured in the absence of Stelliferin A. In kind it is cell-based, human. As for the experimental part:
Apoptosis inducing action by imatinib alone in a culture system of MB-1 cells alone was evaluated.
From a co-culture system with OP9 cells, MB-1 cells were purified by a cell sorter and seeded to 12-well plates at a density of 2.0×10^5 cells per well, and then, imatinib was added in a concentration of 0.2 μM or 1.0 μM. After culture was performed for one day, apoptosis was detected in the manner described below.
Apoptosis was detected by use of NucView 488 Caspase-3 Assay Kit for Live Cells (Biotium, USA) in the same manner as in the apoptosis detection performed in the co-culture system of MB-1 cells and OP9 cells.

Test [3] relates to MB-1 cells co-cultured with OP9 cells. The test can be described thus: Screening for cobblestone area (CA) formation inhibitory activity in co-culture of OP9 cells and MB-1 cells. In kind it is cell-based, human. To be noted: OP9/MB-1 co-culture, 48 hours incubation with sample; tested at 10, 2, 0.4 and 0.08 μg/mL; microscopic observation. As for the experimental part: In individual wells of a 96-well plate, OP9 cells (9.0×10^3) treated with 3 μg/mL mitomycin C (Sigma-Aldrich Co. LLC., USA) for 3 hours (37° C., 5% CO2) were seeded and incubated at 37° C. under 5% CO2. The culture liquid used herein was α MEM (Gibco) containing 20% inactivated FBS (MP Biomedicals, LLC., USA) and 1% penicillin-streptomycin (P/S, Gibco, Thermo Fisher Scientific Inc., USA). The following day, to the individual wells having OP9 cells seeded therein, MB-1 cells (2.5×10^3) were seeded. In the co-culture of the OP9 cells and MB-1 cells, the culture liquid used herein was α MEM containing 10% inactivated FBS (Biowest SAS, France), 1% P/S, 1% non-essential amino acids (NEAA, Invitrogen, Thermo Fisher Scientific Inc.) and 10 μM β-mercaptoethanol (Gibco). Forty-eight hours later, a Porifera sample (2 μL) dissolved in DMSO was added and diluted five times to prepare four solutions different in concentration (10 μg/mL, 2 μg/mL, 0.4 μg/mL and 0.08 μg/mL). After incubation was performed for 48 hours at 37° C. under 5% CO2, fixation was performed with 4% paraformaldehyde (Wako Pure Chemical Industries, Ltd.), nuclear-staining was performed with Hoechst 33342 (Dojindo Laboratories, Kumamoto) and observation was made with a microscope (Type IX71, Olympus Corporation Ltd., Tokyo). […]

The test system is the same in test [4]. Kind of test: Apoptosis detection with JC-1 mitochondrial membrane potential reagent in co-culture of MB-1 cells and OP9 cells. It counts as cell-based, human. How it is done:
The effect of the Stelliferin compound on CA formed by co-culture of OP9 cells (serving as support cells for the CA formation in the mouse mesenchymal cells) and MB-1 cells was examined by apoptosis detection reagent JC-1.
To a 24-well plate, OP9 cells treated with MMC were seeded at a density of 8.0×10^4 cells per well. After culture was performed for one day, MB-1 cells were seeded at a density of 4.0×10^4 cells per well. After culture was performed for two days, Stelliferin A was added in a concentration of 0.4 μg/mL. After culture was performed for one day, imatinib was added in a concentration of 1.0 μM. After culture was performed for one day, apoptosis was detected in the manner described below.
Apoptosis was detected by JC-1 Mitochondrial Membrane Potential Assay Kit. To each well, 50 μL of JC-1 Reagent of JC-1 Mitochondrial Membrane Potential Assay Kit was added and incubation was carried out for 20 minutes. Thereafter, 0.05% trypsin-EDTA was added to each well and incubation was carried out for 4 minutes. After a culture liquid was added, aliquots were separately taken and then centrifuged (1,200 rpm, 4 minutes) to collect cells. The collected cells were separately suspended in 300 μL of a culture liquid and analyzed by a cell sorter (Type SH-800, SONY Corporation, Tokyo). The ratios of red fluorescent negative cells in individual wells were calculated.

The test system is the same in test [5]. Kind of test: Stereoscopic positional relationship between mCherry OP9 cells and GFP MB-1 cells by confocal microscope. It counts as cell-based, human. To be noted: Stelliferin A 0.4 μg/mL, two days. How it is done: The effect of a Stelliferin compound on the stereoscopic positional relationship between OP9 cells (which serve as support cells in CA formation in the mouse mesenchymal cells) and MB-1 cells was examined by using OP9 cells and MB-1 cells to which fluorescent proteins were separately introduced.
To a 35-mm dish having a glass bottom, OP9 cells, which were treated with MMC and to which fluorescent protein mCherry was introduced, were seeded at a density of 4.0×10^5 cells. After culture was performed for one day, fluorescent protein GFP introduced MB-1 cells were seeded at a density of 2.0×10^5 cells. After culture was performed for two days, Stelliferin A was added in a concentration of 0.4 μg/mL. After culture was performed for two days, the stereoscopic positional relationship between the cells was photographed with a confocal microscope (Type IX81, Olympus Corporation), and examined.

For test [6], the system named is TF-1 cells co-cultured with OP9 cells. The test can be described thus: Niche (CA) formation suppression in co-culture of TF-1 cells and OP9 cells. It counts as cell-based, human. To be noted: TF-1/OP9 co-culture; Stelliferin A at 0.4 μg/mL, two days. How it is done: In order to verify that the action of Stelliferin A to suppress niche formation by MB-1 cells is not specific to MB-1 cells, the actions of a fat-soluble fraction of S12111 and Stelliferin A against niche formation by TF-1 cells were evaluated in a co-culture system of TF-1 cells (which have leukemic stem-cell-like characteristics similarly to MB-1 cells) and OP9 cells.
The experiment was carried out basically in the same manner as employed in the evaluation with MB-1 cells mentioned above except that TF-1 cells (strain derived from human bone marrow erythroleukemia cells) were used in place of MB-1 cells. In evaluation of Stelliferin A, more specifically, evaluation of niche formation suppressive action of Stelliferin A in the co-culture system of TF-1 cells and OP9 cells, OP9 cells (8.0×10^4) treated with MMC were seeded in individual wells of a 24-well plate. After culture was performed for one day, TF-1 cells (4.0×10^4) were seeded. The culture liquid used herein was IMDM (Gibco) containing 10% inactivated FBS (Biowest SAS, France) and 1% P/S. After culture was performed for one day, medium was exchanged. After culture was performed for further one day, Stelliferin A was added in a concentration of 0.4 μg/mL. After culture was performed for two days, the presence or absence of CA formation was observed by a microscope.

Test [7] deals with MB-1 cells co-cultured with OP9 cells. Kind of test: CA reformation after Stelliferin A treatment of OP9/MB-1 co-culture and exchange of culture medium. In kind it is cell-based, human. To be noted: Stelliferin A 0.4 μg/mL Day 4 to Day 6, fresh medium without it, examined Day 8. As for the experimental part: (§1) On Day 1, OP9 cells were seeded in a culture medium in the same manner as above and incubated. On Day 2, MB-1 cells were seeded and co-cultured with the OP9 cells. On day 4, Stelliferin A was added so as to be 0.4 μg/mL and incubated.

Test [8] relates to MB-1 cells. The test can be described thus: CA reformation when free MB-1 cells from treated co-culture are co-cultured with fresh OP9 cells. In kind it is cell-based, human. The following applies: Stelliferin A 0.4 μg/mL Day 4 to Day 6, then co-culture in the absence of Stelliferin A, examined Day 8. As for the experimental part: as §1
The test system of test [9] is OP9 cells. Kind of test: CA formation when OP9 cells exposed to Stelliferin A are co-cultured with unexposed MB-1 cells. To be noted: OP9 cells exposed to 0.4 μg/mL Day 2 to Day 4, then unexposed MB-1 cells; compared to unexposed control. In kind it is cell-based, mouse. As for the experimental part: On Day 1, OP9 cells were seeded in a culture medium in the same manner as above and incubated. On Day 2, Stelliferin A was added so as to be 0.4 μg/ml, and incubated. On Day 4, fresh MB-1 cells not exposed to Stelliferin A were seeded and co-cultured. On Day 6, whether CA was formed or not was examined. Also, for comparison, CA formation was examined in a control system where OP9 cells and MB-1 cells were co-cultured in the absence of Stelliferin A in accordance with the above schedule.

Entries after “also recorded” stand apart in the source; their conditions may differ.

Data on three compounds can be found in patent US10933044B2, “Marine organism-derived extract, compound, and medical composition having niche formation suppressing activity of leukemic stem cells” (WASEDA UNIVERSITY, priority 2016, dated 2021).

Turning to `Cc1ccc(NC(=O)c2ccc(CN3CCN(C)CC3)cc2)cc1Nc1nccc(-c2cccnc2)n1` [Imatinib, imatinib, reference compound], the “Apoptosis induction of MB-1 cells (%)” value in [1] (imatinib 0.2 μM, Stelliferin A absent) is recorded as 8.07%; in [1] (imatinib 1.0 μM, Stelliferin A absent), 12.14%. Further, in test [2], the “Sensitivity of MB-1 cells cultured alone to imatinib (apoptosis)” value is recorded as “high sensitivity”.
As to Stelliferin A, in test [3], the “CA formation inhibitory activity” value came to 0.08 µg/mL. Also, the “Apoptosis induction of MB-1 cells (%)” value in test [1] (Stelliferin A present at 0.4 μg/mL plus imatinib 0.2 μM) worked out at 22.39%; in [1] (Stelliferin A present at 0.4 μg/mL plus imatinib 1.0 μM), 44.63%; in test [1] (Stelliferin A present at 0.4 μg/mL, imatinib absent), 16.03%. Also, the “Ratio of MB-1 cells which induced apoptosis / NucView peak representing caspase 3 activity” value in [1] (presence of Stelliferin A with imatinib 0.2 μM and 1.0 μM compared to absence of Stelliferin A) is “increased depending on each of the concentrations of Stelliferin A and imatinib; also recorded: statistically significantly (Student t test, p<0.05) increased”. The “Apoptosis induction (JC-1, mitochondrial membrane potential difference disappeared)” value in test [4] (co-presence of Stelliferin A 0.4 μg/mL and imatinib 1.0 μM) is recorded as “apoptosis was induced”. Further, the “Apoptosis induction (JC-1) when dose of imatinib was changed” value in test [4] (in the presence of Stelliferin A, imatinib dose varied) is given as “apoptosis was also induced in the dose-dependent manner of imatinib”. For the same compound, the “Position of MB-1 cells relative to OP9 cell layer” value in test [5] is recorded as “MB-1 cells were exposed to the upper side of the OP9 cell layer”. For the same compound, in [6], the “Niche formation by TF-1 cells” value was “suppressed niche formation by TF-1 cells”. In addition, the “CA reformation after removal of Stelliferin A” value in test [7] is “CA was not reformed”. Also, in [8], the “CA reformation of treated free MB-1 cells with fresh OP9 cells” value was “CA was reformed”. Moreover, the “Number of CAs formed with OP9 cells exposed to Stelliferin A” value in [9] was “the number of CAs formed was low”.
As to Stelliferin B, in test [3], the “CA formation inhibitory activity” value was found to be 0.08 µg/mL.
